# From US12343347B2 (Biohaven Pharmaceutical Holding Company Ltd., priority 2012, dated 2025)
# Experiments:
# [1] = Stability in Simulated Gastric Fluid (SGF); assay type: in vitro ADME; conditions: SGF:acetonitrile 9:1, 0.01 mg/mL, 37° C.
# Method: (§1) Stability in Simulated Gastric Fluid (SGF) and Simulated Intestinal Fluid (SIF). Procedure from Baudy et. al. (J. Med. Chem. 2009, 52, 771-778) used. The physiological stability of pro-drugs was determined by examining the stability of the compound in SGF, and SIF at 37° C. The compounds were prepared in a 9:1 mixture of the appropriate test component (SGF, SIF) and acetonitrile to a final concentration of 0.01 mg/mL. The samples were thoroughly mixed and maintained at 37° C. Each sample was injected consecutively onto an Agilent 1100 system (Luna C18, 3 μm, 50 mm×3 mm; 1 mL/min; mobile phase of 0.1% trifluoroacetic acid in water/0.1% trifluoroacetic acid in acetonitrile) after a 3 h period. The percent remaining of pro-drug was calculated by comparing the area of pro-drug compound versus riluzole generated. The identities of the parent compounds and conversion products were confirmed by LC/MS.
# [2] = Stability in Simulated Intestinal Fluid (SIF); assay type: in vitro ADME; conditions: SIF:acetonitrile 9:1, 0.01 mg/mL, 37° C.
# Method: as §1
# [3] = Metabolic stability in pooled mouse liver microsomes; assay type: in vitro ADME; conditions: mouse liver microsomes 0.5 mg/mL, 1 uM, NADPH, 37° C.
# Method: (§2) Metabolic Stability: In vitro metabolic stability was determined in pooled mouse or human liver microsomes (BD Gentest) at a protein concentration of 0.5 mg/mL in reaction buffer (100 mM KH2PO4, pH 7.4 and 12 mM MgCl2). Each drug candidate was added to a final concentration of 1 uM. This mixture was pre-warmed to 37° C. for 10 minutes prior to starting the reaction with the addition of β-Nicotinamide adenine dinucleotide 2′-phosphate reduced (NADPH) to a final concentration of 1 mM. A parallel incubation lacking NADPH served as the control. After incubation for 30 min at 37° C., the reactions were quenched by the addition of acetonitrile containing 0.1% formic acid and internal standard, vortex mixed for 2 minutes and centrifuged at 4000 rpm for 10 minutes to pellet the precipitated protein. The resulting supernatant containing the drug candidate and its potential metabolites was diluted 5-fold with water containing 0.1% formic acid and submitted to LC-MS/MS analysis. […]
# (§3) LC-MS/MS Analysis: An aliquot from each incubation was analyzed by LC-MS/MS with SRM detection in the positive ionization mode using an ABSciex API 5500 QTrap Mass Spectrometer interfaced via the ABSciex Turbo V IonSpray source (ESI) to an Eksigent ExpressHT LC system. […] A fast gradient, from 15 to 85% organic in 2.5 minutes, with run time of 5.0 minutes, and flow rate of 50 uL/min was utilized. Peak areas were integrated using MultiQuant v2.0 software from ABSciex.
# [4] = Metabolic stability in pooled human liver microsomes; assay type: in vitro ADME; conditions: human liver microsomes 0.5 mg/mL, 1 uM, NADPH, 37° C.
# Method: as §2, §3
# [5] = Plasma stability in fresh mouse plasma; assay type: in vitro ADME; conditions: 1 uM, 37° C.
# Method: (§4) Plasma Stability: Assessment of plasma stability was carried out by individual incubations of drug candidates in fresh mouse or human control plasma at a concentration of 1 uM for 1 hour at 37° C. After which, the samples were de-proteinized by addition of 2 volumes of acetonitrile containing 0.1% formic acid and internal standard, vortex mixed for 2 minutes and centrifuged at 4000 rpm for 10 minutes to pellet precipitated protein. The resulting supernatant containing the drug candidates was diluted 5-fold with water containing 0.1% formic acid and submitted to LC-MS/MS analysis. All determinations were done in triplicate. […]
# as §3
# [6] = Plasma stability in fresh human plasma; assay type: in vitro ADME; conditions: 1 uM, 37° C.
# Method: as §4, §3
# [7] = test system: amyotrophic lateral sclerosis (ALS) patients; conditions: after 1.5 years of treatment; cited from earlier work
"SGF (3 hours), percent of pro-drug metabolized to riluzole [1] [%]","SIF (3 hours), percent of pro-drug metabolized to riluzole [2] [%]","Metabolic Stability mouse (30 minutes), percent of pro-drug metabolized to riluzole [3] [%]","Metabolic Stability human (30 minutes), percent of pro-drug metabolized to riluzole [4] [%]","Plasma Stability mouse (1 hour), percent of pro-drug metabolized to riluzole [5] [%]","Plasma Stability Human (1 hour), percent of pro-drug metabolized to riluzole [6] [%]",SMILES,increase of lifespan [7]
0,0,59,22,0,13,"O=C(Cc1ccccc1[N+](=O)[O-])Nc1nc2ccc(OC(F)(F)F)cc2s1 [Cpd 27, 2-(2-Nitro-phenyl)-N-(6-trifluoromethoxy-benzothiazol-2-yl)-acetamide]",
0,0,24,80,0,0,"Nc1ccc(C(=O)Nc2nc3ccc(OC(F)(F)F)cc3s2)cc1 [Cpd 28, 4-Amino-N-(6-trifluoromethoxy-benzothiazol-2-yl)-benzamide]",
,,,,,,"Nc1nc2ccc(OC(F)(F)F)cc2s1 [riluzole, 6-(trifluoromethoxy)-1,3-benzothiazol-2-amine]",2-3 months
